≈ marks a conversion by molar mass, not a printed value.
Legend:
[1] = molecular target: Endoplasmin (Homo sapiens, UniProt P14625)
[2] = molecular target: T1, Heat shock protein HSP 90-beta (Homo sapiens, UniProt P08238)
[3] = molecular target: T2, Heat shock protein 75 kDa, mitochondrial (Homo sapiens, UniProt Q12931)
T2 sequence (Q12931 whole entry): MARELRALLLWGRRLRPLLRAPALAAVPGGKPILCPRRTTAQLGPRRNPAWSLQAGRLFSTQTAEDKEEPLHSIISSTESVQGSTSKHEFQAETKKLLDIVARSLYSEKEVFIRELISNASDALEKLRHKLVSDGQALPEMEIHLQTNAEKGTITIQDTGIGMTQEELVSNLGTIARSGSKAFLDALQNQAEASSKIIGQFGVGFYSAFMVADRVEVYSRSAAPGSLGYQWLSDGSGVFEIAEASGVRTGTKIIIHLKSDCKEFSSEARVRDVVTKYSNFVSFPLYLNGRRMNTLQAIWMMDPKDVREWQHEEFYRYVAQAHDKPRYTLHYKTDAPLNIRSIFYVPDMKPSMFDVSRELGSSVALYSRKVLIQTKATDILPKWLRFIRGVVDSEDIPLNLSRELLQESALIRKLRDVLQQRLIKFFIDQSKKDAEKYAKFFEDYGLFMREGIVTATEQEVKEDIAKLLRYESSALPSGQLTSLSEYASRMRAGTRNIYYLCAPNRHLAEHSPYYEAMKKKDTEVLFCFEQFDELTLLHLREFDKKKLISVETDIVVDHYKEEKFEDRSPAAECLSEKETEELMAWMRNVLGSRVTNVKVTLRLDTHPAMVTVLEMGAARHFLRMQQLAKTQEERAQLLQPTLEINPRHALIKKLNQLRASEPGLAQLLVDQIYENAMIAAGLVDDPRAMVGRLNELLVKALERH

[4] = molecular target: T1, Heat shock protein HSP 90-beta; remark: listed apart in the source
[5] = in vivo; settings: Sprague-Dawley, rat, iv, 1 mg/kg
[6] = in vivo; settings: Sprague-Dawley, rat, sc, 10 mg/kg
[7] = in vivo; settings: Sprague-Dawley, rat, iv, 1 mg/kg; remark: listed apart in the source
[8] = in vivo; settings: Sprague-Dawley, rat, iv, 1 mg/kg; remark: listed apart in the source
[9] = in vivo; settings: Sprague-Dawley, rat, plasma, iv, 1 mg/kg
[10] = in vivo; settings: Sprague-Dawley, rat, brain and plasma, sc, 10 mg/kg
[11] = in vivo; settings: Sprague-Dawley, rat, plasma, sc, 10 mg/kg
[12] = Aqueous solubility of the compound at pH 7.4; format: physicochemical

Sequence of Endoplasmin (P14625 whole entry): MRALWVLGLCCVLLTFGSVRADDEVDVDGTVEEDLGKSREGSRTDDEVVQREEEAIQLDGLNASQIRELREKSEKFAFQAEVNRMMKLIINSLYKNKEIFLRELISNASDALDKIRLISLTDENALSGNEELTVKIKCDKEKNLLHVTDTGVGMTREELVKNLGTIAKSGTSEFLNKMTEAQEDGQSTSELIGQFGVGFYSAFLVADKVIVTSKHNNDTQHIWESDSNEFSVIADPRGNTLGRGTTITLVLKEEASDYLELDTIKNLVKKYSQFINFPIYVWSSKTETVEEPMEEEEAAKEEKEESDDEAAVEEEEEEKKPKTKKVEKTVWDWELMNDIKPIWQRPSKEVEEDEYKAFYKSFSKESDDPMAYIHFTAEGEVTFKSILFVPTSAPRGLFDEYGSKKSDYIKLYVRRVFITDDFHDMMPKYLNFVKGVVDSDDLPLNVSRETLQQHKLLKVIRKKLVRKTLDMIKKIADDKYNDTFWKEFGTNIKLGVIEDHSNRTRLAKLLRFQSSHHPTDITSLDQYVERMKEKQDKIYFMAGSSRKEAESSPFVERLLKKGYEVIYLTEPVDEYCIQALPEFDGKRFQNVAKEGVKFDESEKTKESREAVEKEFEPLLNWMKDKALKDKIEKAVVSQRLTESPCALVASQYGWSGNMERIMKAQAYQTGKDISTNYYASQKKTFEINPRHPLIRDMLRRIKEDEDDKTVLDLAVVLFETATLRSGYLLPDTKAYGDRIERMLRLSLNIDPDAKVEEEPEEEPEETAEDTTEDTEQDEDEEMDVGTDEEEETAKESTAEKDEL
T1 sequence (P08238 whole entry): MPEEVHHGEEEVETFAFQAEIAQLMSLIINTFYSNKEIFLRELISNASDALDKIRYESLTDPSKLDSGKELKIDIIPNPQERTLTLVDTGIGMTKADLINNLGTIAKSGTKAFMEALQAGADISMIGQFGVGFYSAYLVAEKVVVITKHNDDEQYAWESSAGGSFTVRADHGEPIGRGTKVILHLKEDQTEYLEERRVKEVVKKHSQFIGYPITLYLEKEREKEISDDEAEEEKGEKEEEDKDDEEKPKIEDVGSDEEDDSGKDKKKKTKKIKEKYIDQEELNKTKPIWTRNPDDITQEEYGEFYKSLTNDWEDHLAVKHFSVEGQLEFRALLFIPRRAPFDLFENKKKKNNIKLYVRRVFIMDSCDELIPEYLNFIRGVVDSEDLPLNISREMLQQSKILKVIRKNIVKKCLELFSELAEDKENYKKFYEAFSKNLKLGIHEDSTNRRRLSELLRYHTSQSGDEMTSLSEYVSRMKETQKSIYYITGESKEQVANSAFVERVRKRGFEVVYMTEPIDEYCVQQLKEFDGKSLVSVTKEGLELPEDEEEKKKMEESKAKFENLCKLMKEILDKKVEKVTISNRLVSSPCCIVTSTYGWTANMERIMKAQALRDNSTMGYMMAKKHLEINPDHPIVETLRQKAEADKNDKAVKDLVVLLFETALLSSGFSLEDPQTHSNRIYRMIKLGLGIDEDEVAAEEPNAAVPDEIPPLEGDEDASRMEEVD

SMILES	Ki [1]	Ki [2]	Ki [3]	IC50 [4]	further results
CC1(C)CC(=O)c2c(n(-c3ccc(C(N)=O)cc3)c3cccnc23)C1	> 10000 nM	> 10000 nM	> 10000 nM	–	–
CC1(C)CC(=O)c2c(n(-c3ccc(C(N)=O)cc3)c3cnccc23)C1	> 10000 nM	> 10000 nM	> 10000 nM	–	–
Cc1cn(-c2cc3c(c(-c4cccc(F)c4)c2)C(=O)NCC3)c2c1C(=O)CC(C)(C)C2	> 10000 nM	20 nM	> 10000 nM	81 nM	–
Cc1cn(-c2cc3c(c(Cc4ccccc4)c2)C(=O)NCC3)c2c1C(=O)CC(C)(C)C2	> 10000 nM	120 nM	> 10000 nM	480 nM	–
Cc1cn(-c2cc3c(c(C4CCCCC4)c2)C(=O)NCC3)c2c1C(=O)CC(C)(C)C2	> 10000 nM	5 nM	> 10000 nM	36 nM	–
CN1CCc2c3c(n(-c4ccc(C(N)=O)c(N[C@H]5CCOC5)c4)c2C1)CC(C)(C)CC3=O	–	–	–	–	solubility [12]: > 200 µM
Cc1cn(-c2cc3c(c(-c4ccccc4)c2)C(=O)NCC3)c2c1C(=O)CC(C)(C)C2	> 10000 nM	15 nM	> 10000 nM	230 nM	–
COc1ccc(-c2cc(-n3cc(C)c4c3CC(C)(C)CC4=O)cc3c2C(=O)NCC3)cc1	> 10000 nM	40 nM	> 10000 nM	280 nM	–
Cc1cn(-c2cc3c(c(C4CCC4)c2)C(=O)NCC3)c2c1C(=O)CC(C)(C)C2	> 10000 nM	39 nM	> 10000 nM	195 nM	–
Cc1cn(-c2cc3c(c(C4CCOCC4)c2)C(=O)NCC3)c2c1C(=O)CC(C)(C)C2	2400 nM	3 nM	> 10000 nM	19 nM	–

Second part, led by results:

Ki [1]	Ki [2]	Ki [3]	IC50 [4]	SMILES	further results
> 10000 nM	140 nM	> 10000 nM	1700 nM	Cc1cn(-c2cc3c(c(C(C)(C)C)c2)C(=O)NCC3)c2c1C(=O)CC(C)(C)C2	–
> 10000 nM	–	> 10000 nM	–	Cc1cn(-c2cc3c(c(CC(C)C)c2)C(=O)NCC3)c2c1C(=O)CC(C)(C)C2	clearance [5]: 25.7 mL/min/kg; half-life [6]: 11.6 h; half-life [7]: 2.2 h; Vd [8]: 4.08 L/kg; AUC [9]: 640 ng·h/mL; Kp at 2 h [10]: 0.5; AUC [11]: 3580 ng·h/mL
> 10000 nM	> 10000 nM	> 10000 nM	> 10000 nM	CN1CCc2c3c(n(-c4ccc5c(c4)CNC5=O)c2C1)CC(C)(C)CC3=O	–
–	40 nM	–	530 nM	CC1(C)CC(=O)c2c3c(n(-c4ccc(C(N)=O)c(N[C@H]5CCOC5)c4)c2C1)CCCC3	solubility [12]: 27 µM (≈ 11.4 µg/mL)
> 10000 nM	56 nM	> 10000 nM	1000 nM	CCCCc1cc(-n2cc(C)c3c2CC(C)(C)CC3=O)cc2c1C(=O)NCC2	–
> 10000 nM	10 nM	> 10000 nM	80 nM	Cc1cn(-c2cc3c(c(-c4ccc(F)cc4)c2)C(=O)NCC3)c2c1C(=O)CC(C)(C)C2	–
> 10000 nM	> 10000 nM	> 10000 nM	> 10000 nM	CN1CCc2c3c(n(-c4ccc5c(c4)CCCNC5=O)c2C1)CC(C)(C)CC3=O	–
